Results taken from the supplement of paper PMC10307832.

Tests used:
Assay in all cases: relative viability (nuclei count vs DMSO), 5 days (fraction); higher = more cells survive
[1] = compound: C1=CC=C2C(=C1)C=CC(=C2SSC3=C(C=CC4=CC=CC=C43)O)O [IPA-3] + CC1(C)CCC(c2ccc(Cl)cc2)=C(CN2CCN(c3ccc(C(=O)NS(=O)(=O)c4ccc(N[C@H](CCN5CCOCC5)CSc5ccccc5)c(S(=O)(=O)C(F)(F)F)c4)cc3)CC2)C1 [Navitoclax] (partner 0.5 µM)
How it was run: (§1)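 Five library-drug doses in √10 steps were combined with a fixed anchor-drug dose, or a single drug was given alone, by pin tool to lung cancer cell lines in 1536-well plates the day after seeding. Nuclei were stained and counted after 5 days. Relative viability is the nuclei count in treated wells over that in vehicle wells, taken as the median of duplicate plates.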

[2] = compound: Cn1c(Nc2ccc(C(F)(F)F)cc2)nc2cc(Oc3ccnc(-c4ncc(C(F)(F)F)[nH]4)c3)ccc21 [RAF265] + COc1cccc2cc(-c3nc([C@H]4CC[C@H](C(=O)O)CC4)n4ncnc(N)c34)[nH]c12 [OSI-027] (partner 0.5 µM)
How it was run: as §1

[3] = compound: Cc1ccc(-n2nc(C(C)(C)C)cc2NC(=O)Nc2ccc(OCCN3CCOCC3)c3ccccc23)cc1 [Doramapimod] + O=C(c1cc(Cc2n[nH]c(=O)c3ccccc23)ccc1F)N1CCN(C(=O)C2CC2)CC1 [Olaparib] (partner 8 µM)
How it was run: as §1

[4] = compound: C1=CC=C2C(=C1)C=CC(=C2SSC3=C(C=CC4=CC=CC=C43)O)O [IPA-3] + Cc1nc(NC(=O)N2CCC[C@H]2C(N)=O)sc1-c1ccnc(C(C)(C)C(F)(F)F)c1 [Alpelisib] (partner 2 µM)
How it was run: as §1

## UMC-11
[1]; first compound 0.2 µM
  relative viability: 0.319
[1]; first compound 0.6325 µM
  relative viability: 0.306
[1]; first compound 2 µM
  relative viability: 0.321
[1]; first compound 6.325 µM
  relative viability: 0.367
[1]; first compound 20 µM
  relative viability: 0.462
[2]; first compound 0.01 µM
  relative viability: 0.491
[2]; first compound 0.03162 µM
  relative viability: 0.48
[2]; first compound 0.1 µM
  relative viability: 0.464
[2]; first compound 0.3162 µM
  relative viability: 0.457
[2]; first compound 1 µM
  relative viability: 0.378
[3]; first compound 0.02 µM
  relative viability: 0.353
[3]; first compound 0.06325 µM
  relative viability: 0.348
[3]; first compound 0.2 µM
  relative viability: 0.274
[3]; first compound 0.6325 µM
  relative viability: 0.963
[3]; first compound 2 µM
  relative viability: 0.365
[4]; first compound 0.2 µM
  relative viability: 1.22
[4]; first compound 0.6325 µM
  relative viability: 0.962
[4]; first compound 2 µM
  relative viability: 1.07
[4]; first compound 6.325 µM
  relative viability: 1.01
[4]; first compound 20 µM
  relative viability: 1.07
